Measurements from ChEMBL document CHEMBL1201862, “PubChem BioAssay data set” (2004).
The source made the active and inactive calls.

Columns and labels:
[1] = target: Delta-type opioid receptor (Homo sapiens, UniProt P41143); test: SAR Analysis of Antagonists of the DOR Receptor using an Image-Based Assay - Set 3. [Related pubchem assays (depositor defined):AID1777, AID1785]; type: functional;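 further: U2OS cells expressing DOR1 and beta-arrestin GFP stimulated with 100 nM SNC80; imaging of GFP-tagged beta-arrestin moving into spots after receptor activation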
Delta-type opioid receptor, sequence (P41143 whole entry): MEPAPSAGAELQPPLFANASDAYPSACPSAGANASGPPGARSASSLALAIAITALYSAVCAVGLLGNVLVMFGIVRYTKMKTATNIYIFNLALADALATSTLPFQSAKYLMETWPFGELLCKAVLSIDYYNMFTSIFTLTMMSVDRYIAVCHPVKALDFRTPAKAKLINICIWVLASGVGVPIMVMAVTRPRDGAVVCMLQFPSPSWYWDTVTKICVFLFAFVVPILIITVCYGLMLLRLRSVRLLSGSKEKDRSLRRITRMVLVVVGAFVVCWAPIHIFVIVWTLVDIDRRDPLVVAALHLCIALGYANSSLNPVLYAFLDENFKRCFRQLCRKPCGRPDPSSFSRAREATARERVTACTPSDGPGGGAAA

[2] = target: Mu-type opioid receptor (Homo sapiens, UniProt P35372); test: SAR Analysis of Antagonists of the MOR Receptor using an Image-Based Assay - Set 3. [Related pubchem assays (depositor defined):AID1777, AID1785, AID1786, AID1966, AID2133, AID2136, AID2284, AID2285, AID2420]; type: functional
Mu-type opioid receptor, sequence (P35372 whole entry): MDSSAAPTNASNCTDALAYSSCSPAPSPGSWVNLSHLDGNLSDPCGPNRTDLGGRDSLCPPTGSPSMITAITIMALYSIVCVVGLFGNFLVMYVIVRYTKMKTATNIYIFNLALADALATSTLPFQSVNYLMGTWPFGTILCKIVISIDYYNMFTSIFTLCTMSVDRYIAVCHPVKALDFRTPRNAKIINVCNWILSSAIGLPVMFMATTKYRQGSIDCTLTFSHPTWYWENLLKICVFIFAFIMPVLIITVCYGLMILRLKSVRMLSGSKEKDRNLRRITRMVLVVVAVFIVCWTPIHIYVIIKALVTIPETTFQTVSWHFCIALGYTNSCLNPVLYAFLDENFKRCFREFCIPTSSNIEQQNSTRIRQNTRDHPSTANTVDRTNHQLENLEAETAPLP

[3] = target: T1, Kappa-type opioid receptor (Homo sapiens, UniProt P41145); test: SAR analysis of small molecule antagonists of the kappa opioid receptor via a luminescent beta-arrestin assay - Set 4. [Related pubchem assays (depositor defined):AID1777, AID1778, AID1785, AID1786, AID1966, AID2133, AID2136, AID2285]; type: functional
T1 sequence (P41145 whole entry): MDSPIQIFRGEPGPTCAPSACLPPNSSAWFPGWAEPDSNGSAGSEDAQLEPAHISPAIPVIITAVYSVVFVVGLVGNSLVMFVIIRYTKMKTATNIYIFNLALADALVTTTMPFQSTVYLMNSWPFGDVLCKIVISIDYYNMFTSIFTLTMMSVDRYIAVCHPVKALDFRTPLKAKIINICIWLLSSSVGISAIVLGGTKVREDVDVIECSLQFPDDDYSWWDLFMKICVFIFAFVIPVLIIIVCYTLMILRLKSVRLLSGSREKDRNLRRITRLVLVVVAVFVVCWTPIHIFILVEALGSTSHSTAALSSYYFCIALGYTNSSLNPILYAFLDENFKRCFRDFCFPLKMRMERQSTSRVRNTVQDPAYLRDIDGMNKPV

[4] = target: T1, Kappa-type opioid receptor; test: SAR analysis of Antagonists of the Kappa Opioid Receptor (KOR) using an Image-Based Assay - Set 4. [Related pubchem assays (depositor defined):AID1777, AID1785]; type: functional
[5] = tested on: MDA-MB-435; test: cells; type: functional, cell-based; details: Homo sapiens
[6] = cells; type: functional, cell-based; details: PPC-1
[7] = Luminescence Cell-Based Dose Confirmation to Identify Activators of 5'UTR Stem-Loop Driven Alpha-Synuclein mRNA Translation in H4 Neuroglioblastoma Cells. [Related pubchem assays: 1829 (Project Summary), 1814 (Primary HTS)]; type: functional
[8] = target: NACHT, LRR and PYD domains-containing protein 3 (Homo sapiens, UniProt Q96P20); test: NALP3 inhibitors in yeast, dose response, luminescent (AID 488799); type: functional
[9] = Luminescence Cell-Based Dose Response to Identify Activators of 5'UTR Stem-Loop Driven Prion Protein mRNA Translation in H4-C Neuroglioblastoma Cells. [Related pubchem assays: 1829 (Project Summary), 1814 (Primary HTS)]; type: functional
[10] = tested on: H4; test: Luminescence Cell-Based Dose Response HTS to Identify Activators of 5'UTR Stem-Loop Driven Prion Protein mRNA Translation in H4 Neuroglioblastoma Cells. [Related pubchem assays: 1829 (Project Summary), 1814 (Primary HTS)]; type: functional; details: Homo sapiens
[11] = Luminescence Cell-Based Dose Response to Identify Activators of Luciferase Translation or Activity in H4-C Neuroglioblastoma Cells. [Related pubchem assays: 1829 (Project Summary), 1814 (Primary HTS)]; type: functional
[12] = Luminescence Cell-Based Dose Response HTS to Identify Activators of Luciferase Translation or Activity in H4 […] Cells. [Related pubchem assays: 1829 (Project Summary), 1814 (Primary HTS)]; type: functional
[13] = target: CAAX prenyl protease 2 (Homo sapiens, UniProt Q9Y256); test: inhibition of Ras-converting CAAX protease Rce1 – biochemical, yeast membranes, quenched-peptide fluorescence, cherry-pick, dose response (AID 588849)
[14] = target: Trypsin (Sus scrofa, UniProt P00761); test: trypsin protease activity blockade – biochemical, quenched peptide fluorescence, cherry-pick, selectivity assay for Rce1 protease inhibitor project, dose response (AID 488789)
[15] = target: Keap1/Nrf2 (Homo sapiens, UniProt Q14145); test: disruptors of Keap1 binding to Nrf2 peptide – biochemical, fluorescence polarization, cherry-picked samples, dose response (AID 588683)
[16] = target: ORF 73 (Human herpesvirus 8, UniProt O40947); test: KSHV LANA DNA-binding disruption – biochemical, fluorescence polarization, cherry-picked samples, dose response (AID 504725); design: species or system Human gammaherpesvirus 8;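 further: fluorescence polarization of a labeled DNA duplex reporting LANA DNA binding; potency is for inhibitors that block LANA binding to the DNA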
[17] = tested on: Salmon testes DNA; test: acridine orange-DNA binding displacement – biochemical, fluorescence polarization, cherry-picked samples, set 2, artefact control for KSHV LANA DNA-binding inhibitor project, dose response (AID 504727); design: species or system Salmonidae
[18] = target: Cytochrome P450 2C19 (Homo sapiens, UniProt P33261); test: Cytochrome panel assay with activity outcomes. Panel member name: p450-cyp2c19 Compounds with AC50 equal or less than 10 uM are considered active; type: functional; details: read-out: AC50
[19] = target: T2, Voltage-gated N-type calcium channel alpha-1B subunit/Amyloid beta A4 precursor protein-binding family A member 1 (Homo sapiens, UniProt Q00975+Q02410); type: protein assay
T2 sequence (Q00975 whole entry): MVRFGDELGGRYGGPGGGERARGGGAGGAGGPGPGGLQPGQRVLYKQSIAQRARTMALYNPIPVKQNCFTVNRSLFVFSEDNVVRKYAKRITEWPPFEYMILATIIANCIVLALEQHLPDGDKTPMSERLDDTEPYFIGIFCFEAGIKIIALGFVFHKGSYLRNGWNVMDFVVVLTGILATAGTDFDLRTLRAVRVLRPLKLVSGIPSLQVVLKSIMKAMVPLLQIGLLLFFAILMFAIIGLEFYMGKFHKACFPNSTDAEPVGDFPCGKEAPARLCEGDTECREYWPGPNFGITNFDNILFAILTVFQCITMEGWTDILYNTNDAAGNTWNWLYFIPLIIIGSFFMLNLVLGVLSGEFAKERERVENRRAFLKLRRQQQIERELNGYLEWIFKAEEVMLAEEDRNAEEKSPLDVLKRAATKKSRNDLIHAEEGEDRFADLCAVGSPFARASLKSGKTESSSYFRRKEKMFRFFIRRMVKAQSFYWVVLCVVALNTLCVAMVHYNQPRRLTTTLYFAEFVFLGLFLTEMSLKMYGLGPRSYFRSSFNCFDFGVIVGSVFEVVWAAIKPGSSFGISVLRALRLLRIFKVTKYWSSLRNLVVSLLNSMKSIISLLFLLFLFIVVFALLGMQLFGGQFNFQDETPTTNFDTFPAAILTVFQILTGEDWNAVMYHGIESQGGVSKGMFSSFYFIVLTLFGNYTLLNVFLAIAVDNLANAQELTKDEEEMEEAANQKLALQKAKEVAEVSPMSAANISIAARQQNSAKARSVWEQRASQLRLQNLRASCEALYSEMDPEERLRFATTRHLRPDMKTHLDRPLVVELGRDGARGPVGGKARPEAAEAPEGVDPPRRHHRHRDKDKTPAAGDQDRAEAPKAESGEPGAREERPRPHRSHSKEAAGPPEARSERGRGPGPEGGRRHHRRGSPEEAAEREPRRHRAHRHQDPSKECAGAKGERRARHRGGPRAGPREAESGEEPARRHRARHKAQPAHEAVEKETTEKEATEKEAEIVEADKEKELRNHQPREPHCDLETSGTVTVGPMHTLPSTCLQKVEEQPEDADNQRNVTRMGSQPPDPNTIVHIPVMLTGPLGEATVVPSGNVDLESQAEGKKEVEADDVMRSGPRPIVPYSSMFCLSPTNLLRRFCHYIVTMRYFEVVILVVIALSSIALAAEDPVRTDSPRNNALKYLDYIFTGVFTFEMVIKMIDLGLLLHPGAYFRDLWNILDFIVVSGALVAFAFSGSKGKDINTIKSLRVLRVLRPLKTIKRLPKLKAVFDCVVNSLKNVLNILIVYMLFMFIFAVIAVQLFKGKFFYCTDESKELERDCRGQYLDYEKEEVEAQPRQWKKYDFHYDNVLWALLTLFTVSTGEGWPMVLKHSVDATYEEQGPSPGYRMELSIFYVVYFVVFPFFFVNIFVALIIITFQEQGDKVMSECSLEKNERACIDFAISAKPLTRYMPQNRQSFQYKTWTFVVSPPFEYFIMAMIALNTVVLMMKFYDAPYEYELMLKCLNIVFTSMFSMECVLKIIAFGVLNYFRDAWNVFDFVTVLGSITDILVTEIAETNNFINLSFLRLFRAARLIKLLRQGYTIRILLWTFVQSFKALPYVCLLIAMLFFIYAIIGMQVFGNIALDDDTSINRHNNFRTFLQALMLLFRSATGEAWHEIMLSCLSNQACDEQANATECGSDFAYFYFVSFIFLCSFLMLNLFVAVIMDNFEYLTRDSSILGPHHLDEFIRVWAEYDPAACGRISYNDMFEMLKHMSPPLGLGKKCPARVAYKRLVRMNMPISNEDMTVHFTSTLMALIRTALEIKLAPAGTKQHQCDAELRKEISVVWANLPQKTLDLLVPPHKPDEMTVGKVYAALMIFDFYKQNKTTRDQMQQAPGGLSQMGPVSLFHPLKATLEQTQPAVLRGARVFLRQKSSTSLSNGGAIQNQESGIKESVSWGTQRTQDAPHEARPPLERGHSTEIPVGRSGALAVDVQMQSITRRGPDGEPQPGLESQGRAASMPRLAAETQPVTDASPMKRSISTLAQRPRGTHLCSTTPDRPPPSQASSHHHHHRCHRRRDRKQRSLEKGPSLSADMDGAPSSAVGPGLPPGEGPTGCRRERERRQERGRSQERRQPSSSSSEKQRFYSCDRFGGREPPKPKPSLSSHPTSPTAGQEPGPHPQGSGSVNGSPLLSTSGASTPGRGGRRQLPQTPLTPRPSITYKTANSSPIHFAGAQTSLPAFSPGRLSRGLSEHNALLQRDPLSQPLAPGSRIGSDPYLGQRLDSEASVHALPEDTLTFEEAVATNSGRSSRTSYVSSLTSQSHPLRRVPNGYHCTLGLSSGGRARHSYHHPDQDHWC
T2 sequence (Q02410 whole entry): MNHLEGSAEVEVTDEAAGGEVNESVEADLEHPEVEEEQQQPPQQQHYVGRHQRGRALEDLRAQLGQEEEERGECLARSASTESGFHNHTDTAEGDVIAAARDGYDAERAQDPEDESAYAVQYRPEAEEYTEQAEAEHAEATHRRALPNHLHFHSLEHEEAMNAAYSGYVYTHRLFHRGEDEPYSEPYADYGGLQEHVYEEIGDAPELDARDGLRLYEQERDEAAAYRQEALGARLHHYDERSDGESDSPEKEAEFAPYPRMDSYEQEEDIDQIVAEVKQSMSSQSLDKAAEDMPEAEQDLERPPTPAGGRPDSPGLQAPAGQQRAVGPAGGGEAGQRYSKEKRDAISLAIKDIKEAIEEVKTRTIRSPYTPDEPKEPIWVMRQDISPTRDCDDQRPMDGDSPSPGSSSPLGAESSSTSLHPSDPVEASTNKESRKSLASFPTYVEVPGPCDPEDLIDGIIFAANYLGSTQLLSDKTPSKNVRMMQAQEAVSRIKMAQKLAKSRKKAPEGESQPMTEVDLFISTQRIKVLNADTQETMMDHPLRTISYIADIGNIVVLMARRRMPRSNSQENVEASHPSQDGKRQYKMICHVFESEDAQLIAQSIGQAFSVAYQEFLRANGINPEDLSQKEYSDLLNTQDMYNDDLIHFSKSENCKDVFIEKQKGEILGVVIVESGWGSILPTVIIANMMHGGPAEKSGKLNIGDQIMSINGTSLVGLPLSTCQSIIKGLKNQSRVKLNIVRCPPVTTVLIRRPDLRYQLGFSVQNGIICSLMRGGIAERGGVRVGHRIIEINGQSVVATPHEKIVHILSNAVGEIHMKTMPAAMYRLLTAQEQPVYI

[20] = target: Cytochrome P450 2C9 (Homo sapiens, UniProt P11712)
[21] = target: Large T antigen (Simian virus 40, UniProt P03070); type: functional, Betapolyomavirus macacae;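 further: Confirmatory-stage PubChem screen for compounds that inhibit SV40 T antigen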
Large T antigen, sequence (P03070 whole entry): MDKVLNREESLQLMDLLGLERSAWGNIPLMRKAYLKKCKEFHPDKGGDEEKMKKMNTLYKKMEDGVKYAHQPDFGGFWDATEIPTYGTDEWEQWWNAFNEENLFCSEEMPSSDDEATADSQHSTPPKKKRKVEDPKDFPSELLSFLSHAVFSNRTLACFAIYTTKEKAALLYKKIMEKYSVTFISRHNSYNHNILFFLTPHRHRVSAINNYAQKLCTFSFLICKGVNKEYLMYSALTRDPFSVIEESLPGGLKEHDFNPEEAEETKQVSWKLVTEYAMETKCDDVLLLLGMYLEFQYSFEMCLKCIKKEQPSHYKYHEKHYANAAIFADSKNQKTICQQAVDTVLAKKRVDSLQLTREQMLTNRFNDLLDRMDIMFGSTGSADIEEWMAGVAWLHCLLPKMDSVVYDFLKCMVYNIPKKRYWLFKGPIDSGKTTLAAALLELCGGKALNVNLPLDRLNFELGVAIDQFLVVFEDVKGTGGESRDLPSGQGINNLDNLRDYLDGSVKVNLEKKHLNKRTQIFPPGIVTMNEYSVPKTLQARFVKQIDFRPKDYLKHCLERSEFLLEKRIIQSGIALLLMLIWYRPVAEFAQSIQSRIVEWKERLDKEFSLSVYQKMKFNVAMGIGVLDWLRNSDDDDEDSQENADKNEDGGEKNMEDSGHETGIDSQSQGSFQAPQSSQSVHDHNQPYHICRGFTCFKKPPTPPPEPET

[22] = target: T2, Voltage-gated N-type calcium channel alpha-1B subunit/Amyloid beta A4 precursor protein-binding family A member 1; test: disruptors of Mint-PDZ/N-type channel peptide interaction – biochemical, HTRF, SAR follow-up (AID 2489); type: functional
[23] = target: T2, Voltage-gated N-type calcium channel alpha-1B subunit/Amyloid beta A4 precursor protein-binding family A member 1; type: protein assay; remark: listed apart in the source
[24] = protection from phage-mediated lysis, alamar blue read-out – E. coli UTI89, K1F phage, bacterial capsule biogenesis inhibitors (AID 488966); type: functional
[25] = target: Alkaline phosphatase, placental type (Homo sapiens, UniProt P05187); test: human placental alkaline phosphatase inhibition – biochemical, luminescence, confirmation (AID 1512); type: functional
[26] = target: T3, Mannose-6-phosphate isomerase (Homo sapiens, UniProt P34949); test: Confirmation of compounds inhibiting phosphomannose isomerase (PMI) via a fluorescence intensity assay using a high concentration of mannose 6-phosphate. [Related pubchem assays (depositor defined):AID1209, AID1220, AID1545, AID1553, AID1620]
T3 sequence (P34949 whole entry): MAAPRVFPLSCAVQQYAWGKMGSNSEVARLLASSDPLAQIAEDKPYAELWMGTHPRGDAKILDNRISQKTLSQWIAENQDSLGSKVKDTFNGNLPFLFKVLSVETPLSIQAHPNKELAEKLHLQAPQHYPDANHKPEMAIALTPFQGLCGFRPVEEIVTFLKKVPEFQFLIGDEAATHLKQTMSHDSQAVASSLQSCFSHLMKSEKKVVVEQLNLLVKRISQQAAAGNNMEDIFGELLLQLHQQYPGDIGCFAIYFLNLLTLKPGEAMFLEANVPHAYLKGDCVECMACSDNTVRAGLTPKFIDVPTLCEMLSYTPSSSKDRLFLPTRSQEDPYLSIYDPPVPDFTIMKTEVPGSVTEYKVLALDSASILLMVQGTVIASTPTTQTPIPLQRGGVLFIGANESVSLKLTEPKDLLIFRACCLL

[27] = target: T3, Mannose-6-phosphate isomerase; test: phosphomannose isomerase inhibition – biochemical, fluorescence intensity, confirmation (AID 1535)
[28] = target: T4, Short transient receptor potential channel 4 (Mus musculus, UniProt Q9QUQ5); test: block of DAMGO-driven TRPC4 calcium entry – cell-based, HEK293 TRPC4/mu-opioid, Fluo-4 calcium, dose response (AID 434942); type: functional;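 further: potency of inhibitors blocking the TRPC4 calcium response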
T4 sequence (Q9QUQ5 whole entry): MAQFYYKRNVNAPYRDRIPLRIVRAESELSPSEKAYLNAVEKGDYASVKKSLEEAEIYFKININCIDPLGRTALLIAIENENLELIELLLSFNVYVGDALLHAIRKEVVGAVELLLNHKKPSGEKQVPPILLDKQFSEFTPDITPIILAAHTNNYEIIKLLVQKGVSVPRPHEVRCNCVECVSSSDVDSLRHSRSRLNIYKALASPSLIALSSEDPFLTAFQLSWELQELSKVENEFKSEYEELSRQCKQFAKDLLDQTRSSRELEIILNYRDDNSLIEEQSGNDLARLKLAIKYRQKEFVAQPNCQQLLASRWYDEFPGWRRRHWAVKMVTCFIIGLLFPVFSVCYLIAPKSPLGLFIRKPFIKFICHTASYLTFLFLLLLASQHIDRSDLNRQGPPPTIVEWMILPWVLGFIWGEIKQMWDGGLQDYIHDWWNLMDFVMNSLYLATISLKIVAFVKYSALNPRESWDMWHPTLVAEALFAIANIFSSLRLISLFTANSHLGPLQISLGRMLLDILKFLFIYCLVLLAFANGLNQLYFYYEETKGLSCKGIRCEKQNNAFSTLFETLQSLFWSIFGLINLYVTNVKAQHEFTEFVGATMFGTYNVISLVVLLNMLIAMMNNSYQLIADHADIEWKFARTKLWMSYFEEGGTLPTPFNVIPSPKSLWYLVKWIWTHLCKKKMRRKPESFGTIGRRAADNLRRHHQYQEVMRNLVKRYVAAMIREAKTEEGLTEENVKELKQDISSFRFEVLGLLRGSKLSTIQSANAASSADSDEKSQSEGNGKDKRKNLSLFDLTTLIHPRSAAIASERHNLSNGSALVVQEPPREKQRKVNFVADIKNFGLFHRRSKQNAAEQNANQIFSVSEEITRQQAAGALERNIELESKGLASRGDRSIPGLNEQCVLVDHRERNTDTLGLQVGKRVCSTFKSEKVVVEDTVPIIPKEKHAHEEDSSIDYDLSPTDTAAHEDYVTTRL

[29] = Cytotoxicity screening for potential Inhibitors of Bacterial Capsule Biogenesis. [Related pubchem assays (depositor defined):AID488970]; type: functional
[30] = target: Melanocortin receptor 4 (Homo sapiens, UniProt P32245); test: inhibitors of MC4R cAMP signaling – cell-based, TR-FRET, biased antagonists, dose response (AID 602298); type: functional;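 further: antagonist potency against agonist-stimulated cAMP production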
[31] = target: X-box-binding protein 1 (Homo sapiens, UniProt P17861); type: functional, Cricetulus griseus;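 further: confirmatory dose-response counter-screen serving a CHOP assay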
[32] = target: T5, High affinity choline transporter 1 (Homo sapiens, UniProt Q9GZV3); test: human choline transporter blockers, potency – cell-based, 5-point CRC, membrane potential dye, dose response (AID 504840); type: functional
T5 sequence (Q9GZV3 whole entry): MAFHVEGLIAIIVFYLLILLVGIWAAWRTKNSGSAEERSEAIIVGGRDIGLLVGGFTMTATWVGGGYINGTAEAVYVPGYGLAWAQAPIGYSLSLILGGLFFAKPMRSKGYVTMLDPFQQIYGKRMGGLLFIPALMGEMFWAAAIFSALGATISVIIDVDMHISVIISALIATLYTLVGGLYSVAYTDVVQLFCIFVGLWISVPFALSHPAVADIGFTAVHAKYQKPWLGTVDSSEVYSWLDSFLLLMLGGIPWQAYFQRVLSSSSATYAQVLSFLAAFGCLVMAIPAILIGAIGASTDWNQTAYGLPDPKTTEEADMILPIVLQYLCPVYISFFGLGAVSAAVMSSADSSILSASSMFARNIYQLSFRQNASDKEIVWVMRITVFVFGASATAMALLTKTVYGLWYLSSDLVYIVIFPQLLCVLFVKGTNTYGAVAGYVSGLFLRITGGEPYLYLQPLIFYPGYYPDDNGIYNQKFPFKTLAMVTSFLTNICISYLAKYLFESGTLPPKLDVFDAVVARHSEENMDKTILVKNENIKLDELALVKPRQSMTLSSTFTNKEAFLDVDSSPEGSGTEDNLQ

[33] = cAMP pathway inhibition in counterscreen cell line – TR-FRET cAMP detection, counter-screen for MC4R biased antagonist project, dose response (AID 602305); type: functional, cell-based;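 further: U2OS cells stimulated with forskolin near its EC80 as the cAMP inducer; potency is for inhibition of forskolin-stimulated cAMP signaling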
[34] = Luminescence Cell-Based Dose Retest to Confirm Activators of 5'UTR Stem-Loop Driven Alpha-Synuclein mRNA Translation in H4 Neuroglioblastoma Cells. [Related pubchem assays (depositor defined):AID1813, AID1829]; type: functional
[35] = Luminescence Cell-Based Dose Response HTS to Identify Activators of 5'UTR Stem-Loop Driven Prion Protein mRNA Translation in H4-C Neuroglioblastoma Cells. [Related pubchem assays: 1829 (Project Summary), 1814 (Primary HTS)]; type: functional
[36] = Luminescence Cell-Based Dose Response HTS to Identify Activators of Luciferase Translation or Activity in H4-C Neuroglioblastoma Cells. [Related pubchem assays: 1829 (Project Summary), 1814 (Primary HTS)]; type: functional
[37] = Luminescence Cell-Based Dose Confirmation HTS to Identify Activators of 5'UTR Stem-Loop Driven Alpha-Synuclein mRNA Translation in H4 Neuroglioblastoma Cells. [Related pubchem assays: 1829 (Project Summary), 1814 (Primary HTS)]; type: functional

Cc1ccc(S(=O)(=O)NCc2ccc(C(=O)NC3CCN(Cc4ccccc4)CC3)cc2)cc1
IC50 [1]: > 32 µM (inactive) | IC50 [2]: > 32 µM (inactive) | IC50 [3]: > 20 µM (inactive) | IC50 [4]: > 32 µM (inactive)

CSc1nc(-c2ccccc2)nc(-c2ccccc2)n1
IC50 [5]: > 10 µM (inactive) | IC50 [6]: > 10 µM (inactive)

Nc1ccc(Oc2cc(N)cc(Oc3ccccc3)c2)cc1
EC50 [7]: 1.22 µM (active) | IC50 [8]: 4.74 µM (active) | EC50 [9]: 2.5 µM (active) | EC50 [10]: 20.4 µM (active) | EC50 [11]: > 12 µM (not active) | EC50 [12]: < 0.1 µM (active)

Cc1cc(NC(=O)COC(=O)c2nccnc2N)n(-c2ccccc2)n1
AC50 [13]: 1.84 µM (active) | AC50 [14]: 25.9 µM (active)

Cc1oc2cc(O)ccc2c(=O)c1-c1nncn1-c1ccccc1
AC50 [15]: 43.4 µM (active) | AC50 [16]: 26.6 µM (active) | AC50 [17]: 49.4 µM (active)

Nc1ccc(-c2nc3ccc(N)c(Cl)c3[nH]2)cc1
AC50 [18]: 6.31 µM (inconclusive) | IC50 [19]: 9.64 µM (active) | AC50 [20]: 0.112 µM (inconclusive) | IC50 [21]: 7.64 µM (active) | IC50 [22]: 11.6 µM (active) | IC50 [23]: 1.94 µM (active)

COc1cc(/C=C/C(=O)NC(=O)c2ccccc2O)ccc1OC(C)=O
IC50 [24]: > 150 µM (active)

CCN1C(=O)C2(NNc3ccccc3O2)c2ccccc21 (stereo not drawn)
IC50 [25]: > 100 µM (inactive) | IC50 [26]: > 100 µM (inactive) | IC50 [27]: > 100 µM (inactive)

CCOc1ccc(-c2cc(NC(=O)c3c(F)cccc3F)c(C(=O)O)s2)cc1
EC50 [28]: 2.99 µM (active) | CC50 [29]: 66.7 µM (active)

COc1cccc(C(=O)C(C#N)=C(SC)SC)c1
IC50 [30]: > 64.6 µM (inactive) | Absolute IC50 (XBP1) [31]: 10 µM | IC50 [32]: 11.2 µM (active) | IC50 [33]: > 64.6 µM (inactive)

COc1cccc(Nc2nnc(SCc3nc4ccccc4s3)s2)c1
EC50 [34]: 1.31 µM (active) | EC50 [35]: 4.9 µM (active) | EC50 [36]: 2.15 µM (active) | EC50 [37]: 27.4 µM (active) | EC50 [12]: 46.8 µM (active)
